# Data taken from patent publication US3947411A, “Novel 1-aryl-2-arylalkyl-3-or-4-[4'-(substituted-alkyl)piperazino-1']butanols- 2-or-butenes-1, and methods of manufacture thereof” (Warner-Lambert Company, priority 1972, dated 1976).
# Columns and labels:
# Solubility in water = type: physicochemical; conditions: hydrochlorides or oxalates, read-out: solubilities (in water)
# Procedure: The following list contains examples of those compounds which are made according to the methods disclosed. (The individual compounds are identified by elementary analyses and infrared spectra, by ultra-violet or nuclear resonance spectra, if necessary.) Individual melting points and solubilities (in water) are also given as is the method by which each compound is prepared.
# The melting points and solubilities are given for the Hydrochlorides I - XVI; XVIII - XXVII; XXIX - XXXV; XXXVII - XLII; XLIV - LXII; LXIV - LXVII, and the Oxalates XVII; […]; XXXVI; LXIII.
# Candida albicans = assay: Agar well inhibition zone test against fungi, Candida albicans (Table II); conditions: quantity per well giving inhibition zone (500, 50, 5 μg tested); Sabouraud agar, 28°, 48 hours
# Aspergillus niger = assay: Agar well inhibition zone test against fungi, Aspergillus niger (Table II); conditions: quantity per well giving inhibition zone (500, 50, 5 μg tested); Sabouraud agar, 28°, 48 hours
# Escherichia coli = assay: Agar well inhibition zone test against bacteria, Escherichia coli (Table III); conditions: quantity per well giving inhibition zone (500, 50, 5 μg tested); nutrient agar, 37°, 24 hours
# Staphylococcus aureus = assay: Agar well inhibition zone test against bacteria, Staphylococcus aureus (Table III); conditions: quantity per well giving inhibition zone (500, 50, 5 μg tested); nutrient agar, 37°, 24 hours
# A. niger = assay: Minimum inhibitory concentration for fungi, tube dilution, A. niger (Table IV); conditions: Aspergillus niger, 48 h, read-out: Minimum Inhibitory Concentration, A. niger
# C. albicans [1] = assay: Minimum inhibitory concentration for fungi, tube dilution, C. albicans (Table IV); conditions: Candida albicans, 48 h, read-out: Minimum Inhibitory Concentration, C. albicans
# C. albicans [2] = assay: Minimum inhibitory concentration for fungi in presence of serum, C. albicans (Table VI); type: cell-based; conditions: Candida albicans; Sabouraud nutrient broth + 10% bovine serum, 28°C, 48 hours
# Staph. aureus = assay: Minimum inhibitory concentration for bacteria, tube dilution, Staph. aureus (Table V); conditions: Staphylococcus aureus, 48 h, read-out: Minimum Inhibitory Concentration, Staph. aureus
SMILES,solubility (Solubility in water) [mg/mL],MIC (A. niger) [µg/mL],MIC (C. albicans [1]) [µg/mL],MIC (C. albicans [2]) [µg/mL],MIC (Staph. aureus) [µg/mL],"Inhibition Area at μg, Cand. albicans (Candida albicans) [µg]","Inhibition Area at μg, Asp. niger (Aspergillus niger) [µg]","Inhibition Area at μg, E. coli (Escherichia coli) [µg]","Inhibition Area at μg, Staph. aureus (Staphylococcus aureus) [µg]"
"CC(C(=Cc1ccccc1)Cc1ccccc1)N1CCN(CCCl)CC1 (stereo not drawn) [XLIV, 1-phenyl-2-benzyl-3-(4'-β-chloro-ethyl-piperazino-1')-butene-1]",10,> 1020,> 1020,,,50,50,500,500
"CN1CCN(CC(O)(Cc2ccccc2)Cc2ccccc2)CC1 [LV, 1-phenyl-2-benzyl-3-(4'-methyl-piperazino-1')-propanol-2]",< 10,,,,,> 500,> 500,> 500,> 500
"CC(N1CCN(CCN(C)C)CC1)C(O)(Cc1ccccc1)Cc1ccccc1 (stereo not drawn) [Compound I, 1-phenyl-2-benzyl-3-[4'-(β-dimethylamino-ethyl)-piperazino-1']-butanol-2]",100,128,64,64,,50,50,500,500
"CN1CCN(CCCCCCN2CCN(CCC(O)(Cc3ccccc3)Cc3ccccc3)CC2)CC1 [LXI, 1-phenyl-2-benzyl-4-{4'-[w-(4""-methyl-piperazino-1"")-n-hexyl]-piperazino-1'}-butanol-2]",100,,,,,> 500,> 500,> 500,> 500
"CC(C(=Cc1ccccc1)Cc1ccccc1)N1CCN(CCN2CCOCC2)CC1 (stereo not drawn) [XXXI, 1-phenyl-2-benzyl-3-[4'-(β-morpholino-ethyl)-piperazino-1']-butene-1]",100,64,,,128,500,50,> 500,50
"CC(N1CCN(CCN2CCN(c3ccccc3)CC2)CC1)C(O)(Cc1ccccc1)Cc1ccccc1 (stereo not drawn) [XI, 1-phenyl-2-benzyl-3-{4'-[β-(4""-phenyl-piperazino-1"")-ethyl]-piperazino-1'}-butanol-2]",50,,> 1020,,> 1020,50,500,> 500,50
"CC(N1CCN(CCO)CC1)C(O)(Cc1ccccc1)Cc1ccccc1 (stereo not drawn) [XLVI, 1-phenyl-2-benzyl-3-[4'-(β-hydroxyethyl)-piperazino-1']-butanol-2]",100,,,,,500,500,> 500,500
"CC1CCCN(CCN2CCN(C(C)C(=Cc3ccccc3)Cc3ccccc3)CC2)C1 (stereo not drawn) [XXXIV, 1-phenyl-2-benzyl-3-{4'-[β-(3""-methylpiperidino)-ethyl]-piperazino-1'}-butene-1]",25,32,16,,128,50,50,500,50
"CN1CCN(CCC(O)(Cc2ccccc2)Cc2ccccc2)CC1 [LVI, 1-phenyl-2-benzyl-4-(4'-methyl-piperazino-1')-butanol-2]",10,,,,,500,500,500,500
"OC(CCN1CCN(c2ccccc2)CC1)(Cc1ccccc1)Cc1ccccc1 [LVII, 1-phenyl-2-benzyl-4-(4'-phenyl-piperazino-1')-butanol-2]",< 10,,,,,> 500,> 500,500,> 500
"CC(N1CCN(C)CC1)C(O)(Cc1ccccc1)Cc1ccccc1 (stereo not shown) [LI, 1-phenyl-2-benzyl-3-[1'-methyl-piperazino-4'-]-butanol-2]",200,256,256,,,50,50,500,500

# Now from value to compound, other results behind:
solubility (Solubility in water) [mg/mL],MIC (A. niger) [µg/mL],MIC (C. albicans [1]) [µg/mL],MIC (C. albicans [2]) [µg/mL],MIC (Staph. aureus) [µg/mL],SMILES,"Inhibition Area at μg, Cand. albicans (Candida albicans) [µg]","Inhibition Area at μg, Asp. niger (Aspergillus niger) [µg]","Inhibition Area at μg, E. coli (Escherichia coli) [µg]","Inhibition Area at μg, Staph. aureus (Staphylococcus aureus) [µg]"
100,,,,,"CCN(CCN1CCN(C(C)C(O)(Cc2ccccc2)Cc2ccccc2)CC1)Cc1ccccc1 (stereo not drawn) [XVII, 1-phenyl-2-benzyl-3-[4'-(β-N-ethyl-N-benzyl-aminoethyl)-piperazino-1']-butanol-2]",500,500,> 500,> 500
10,,,,,"CC(N1CCN(Cc2ccccc2)CC1)C(O)(Cc1ccccc1)Cc1ccccc1 (stereo not shown) [LIII, 1-phenyl-2-benzyl-3-(4'-benzyl-piperazino-1')-butanol-2]",> 500,> 500,> 500,> 500
50,512,1020,,,"CCN(CC)CCN1CCN(C(C)C(O)(Cc2ccccc2)Cc2ccccc2)CC1 (stereo not drawn) [II, 1-phenyl-2-benzyl-3-[4'-(β-diethylaminoethyl)-piperazino-1']-butanol-2]",50,50,500,500
50,,,,,"CC(N1CCN(CCN(Cc2ccccc2)Cc2ccccc2)CC1)C(O)(Cc1ccccc1)Cc1ccccc1 (stereo not drawn) [XVI, 1-phenyl-2-benzyl-3-[4'-(β-dibenzylamino-ethyl)-piperazino-1']-butanol-2]",> 500,> 500,> 500,> 500
< 10,,,,,"CC(N1CCN(c2ccccc2)CC1)C(O)(Cc1ccccc1)Cc1ccccc1 (stereo not shown) [LII, 1-phenyl-2-benzyl-3-(4'-phenyl-piperazino-1')-butanol-2]",> 500,> 500,> 500,> 500
10,,,,,"Cc1cccc(CN2CCN(C(C)C(O)(Cc3ccccc3)Cc3ccccc3)CC2)c1 (stereo not shown) [LIV, 1-phenyl-2-benzyl-3-(4'-m-methyl-benzyl-piperazino-1')-butanol-2]",> 500,> 500,> 500,> 500
10,,,,,"CC(N1CCN(CCN(C)c2ccccc2)CC1)C(O)(Cc1ccccc1)Cc1ccccc1 (stereo not drawn) [XVIII, 1-phenyl-2-benzyl-3-[4'-(β-N-phenyl-N-methyl-aminoethyl)-piperazino-1']-butanol-2]",> 500,> 500,> 500,> 500
